Test results published in patent US9924717B2, “Molecules having pesticidal utility, and intermediates, compositions, and processes, related thereto” (Dow AgroSciences LLC, priority 2016, dated 2018).

Tests used:
Format in all cases: in vivo
[1] = system: Beet Armyworm (Spodoptera exigua, LAPHEG) (BAW); assay: Bioassays on Beet Armyworm (BAW), 128-well diet tray assay; settings: Table ABC rating, Beet Armyworm
In short: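 Beet armyworm (Spodoptera exigua) was tested with a 128-well diet tray format. Each 3 mL well held 1 mL of artificial diet treated with the test molecule in 50 μL of 90:10 acetone-water and allowed to dry, across eight wells. One to five second instar larvae were added per well. Trays were sealed with clear self-adhesive covers and kept at 25° C. under 14:10 light-dark for five to seven days. Percent mortality was scored per well and averaged across the eight wells.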

[2] = system: Cabbage Looper (Trichoplusia ni, TRIPNI) (CL); assay: Bioassays on Cabbage Looper (CL), 128-well diet tray assay; settings: Table ABC rating, Cabbage Looper
In short: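 Cabbage looper (Trichoplusia ni) larvae at the second instar stage were tested in a 128-well diet tray. Each 3 mL well held 1 mL of artificial diet treated with test molecule dissolved in 50 μL of 90:10 acetone-water and allowed to dry, eight wells per treatment. One to five larvae were added per well. Trays were sealed with clear self-adhesive covers and kept at 25° C., 14:10 light-dark for five to seven days. Percent mortality per well was averaged across the eight wells.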

[3] = system: Green Peach Aphid (Myzus persicae, MYZUPE) (GPA); assay: Bioassays on Green Peach Aphid (GPA), cabbage seedling foliar spray; settings: Table ABC rating
Experimental: Example B: Bioassays on Green Peach Aphid (Myzus persicae, MYZUPE) (“GPA”) Certain molecules disclosed in this document were tested against GPA using procedures described in the following example. In the reporting of the results, the “GPA & YFM Rating Table” was used (See Table Section). Cabbage seedlings grown in 3-inch pots, with 2-3 small (3-5 cm) true leaves, were used as test substrate. The seedlings were infested with 20-50 GPA (wingless adult and nymph stages) one day prior to chemical application. Four pots with individual seedlings were used for each treatment. Test molecules (2 mg) were dissolved in 2 mL of acetone/methanol (1:1) solvent, forming stock solutions of 1000 ppm test molecule. The stock solutions were diluted 5× with 0.025% Tween 20 in water to obtain the solution at 200 ppm test molecule. A hand-held aspirator-type sprayer was used for spraying a solution to both sides of […] leaves until runoff. Reference plants (solvent check) were sprayed with the diluent only containing 20% by volume of acetone/methanol (1:1) solvent. Treated plants were held in a holding room for three days at approximately 25° C. and ambient relative humidity (RH) prior to grading. Evaluation was conducted by counting the number of live aphids per plant under a microscope. Percent Control was measured by using Abbott's correction formula (W. S. Abbott, “A Method of Computing the Effectiveness of an Insecticide” J. Econ. Entomol. 18 (1925), pp. 265-267) as follows. Corrected % Control=100*(X−Y)/X • where • X=No. of live aphids on solvent check plants and • Y=No. of live aphids on treated plants The results are indicated in the table entitled “Table ABC: Biological Results” (See Table Section).

For `O=C(NC1CC(F)(F)C1)c1ccc(/C(F)=C/C(c2cc(Cl)c(Cl)c(Cl)c2)C(F)(F)F)cc1C(F)(F)F` (stereo not drawn) [F7, (Z)—N-(3,3-difluorocyclobutyl)-4-(1,4,4,4-tetrafluoro-3-(3,4,5-trichlorophenyl)but-1-en-1-yl)-2-(trifluoromethyl)benzamide], the pest or weed control at 50 µg/cm2 [1] was 50 to 100%, the pest or weed control at 50 µg/cm2 [2] was 50 to 100% and the GPA [3] was “A (80-100)”.
For `O=C(NC1CC1)c1ccc(/C(F)=C/C(c2cc(Cl)c(Cl)c(Cl)c2)C(F)(F)F)cc1C(F)(F)F` (stereo not drawn) [F3, (Z)—N-Cyclopropyl-4-(1,4,4,4-tetrafluoro-3-(3,4,5-trichlorophenyl)but-1-en-1-yl)-2-(trifluoromethyl)benzamide], the pest or weed control at 50 µg/cm2 [1] was 50 to 100%, the pest or weed control at 50 µg/cm2 [2] was 50 to 100% and the GPA [3] was “B (More than 0-Less than 80)”.
For `CO/N=C\NC(=O)c1ccc(/C(F)=C/C(c2cc(Cl)c(Cl)c(Cl)c2)C(F)(F)F)cc1C(F)(F)F` (mixture of isomers) [F19, N-((E/Z)-(methoxyimino)methyl)-4-((Z)-1,4,4,4-tetrafluoro-3-(3,4,5-trichlorophenyl)but-1-en-1-yl)-2-(trifluoromethyl)benzamide], the pest or weed control at 50 µg/cm2 [1] was 50 to 100%, the pest or weed control at 50 µg/cm2 [2] was 50 to 100% and the GPA [3] was “B (More than 0-Less than 80)”.
